Measured values reported in the supplement of paper PMC4449167.
± gives the standard deviation of the averaged measurements.

System: WB-F344
Experiment: gap junctional intercellular communication (dye spread) relative to vehicle control (fraction of control); higher = more gap junction communication (less inhibition)
Experimental: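 Confluent WB-F344 rat liver epithelial cells were pretreated with vehicle, D609 (PC-PLC inhibitor, 50 µM, 20 min), U0126 (MEK1/2 inhibitor, 20 µM, 30 min) or resveratrol (100 µM, 15 min), then exposed to a GJIC-dysregulating chemical at the listed dose and time. GJIC was measured by scalpel loading-dye transfer with Lucifer Yellow (3 min), and the dye-spread area was quantified in ImageJ as a fraction of the vehicle control (FOC). Individual values come from at least 3 independent experiments.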

[1] = pretreatment: D609+GJIC dysreg.
[2] = pretreatment: U0126+GJIC dysreg.

SMILES | gap junctional intercellular communication [1] | gap junctional intercellular communication (pretreatment: GJIC dysreg.) | gap junctional intercellular communication (pretreatment: RES+GJIC dysreg.) | gap junctional intercellular communication [2] | gap junctional intercellular communication (dose note: (30 uM), pretreatment: D609+GJIC dysreg.) | gap junctional intercellular communication (dose note: (30 uM), pretreatment: GJIC dysreg.) | gap junctional intercellular communication (dose note: (30 uM), pretreatment: RES+GJIC dysreg.) | gap junctional intercellular communication (dose note: (30 uM), pretreatment: U0126+GJIC dysreg.) | gap junctional intercellular communication (dose note: (50 uM), pretreatment: D609+GJIC dysreg.) | gap junctional intercellular communication (dose note: (50 uM), pretreatment: GJIC dysreg.) | gap junctional intercellular communication (dose note: (50 uM), pretreatment: RES+GJIC dysreg.) | gap junctional intercellular communication (dose note: (50 uM), pretreatment: U0126+GJIC dysreg.)
O=S(=O)(O)C(F)(F)C(F)(F)C(F)(F)C(F)(F)C(F)(F)C(F)(F)C(F)(F)C(F)(F)F [Perfluorooctanesulfonic acid] (compound abbreviation / co-treatment: PFOSA, exposure (dose, time): 40 µM, 20 min) | 0.287 ± 0.045 | 0.279 ± 0.041 | 0.329 ± 0.097 | 0.289 ± 0.037 |  |  |  |  |  |  |  | 
O=C(O)C(F)(F)C(F)(F)C(F)(F)C(F)(F)C(F)(F)C(F)(F)C(F)(F)F [Perfluorooctanoic acid] (compound abbreviation / co-treatment: PFOA, exposure (dose, time): 80 µM, 10 min) | 0.661 ± 0.15 | 0.24 ± 0.054 | 0.743 ± 0.12 | 0.44 ± 0.12 |  |  |  |  |  |  |  | 
c1cc2ccc3cccc4ccc(c1)c2c34 [Pyrene] (compound abbreviation / co-treatment: Pyr, exposure (dose, time): 70 µM, 10 min) | 0.844 ± 0.084 | 0.375 ± 0.078 | 0.802 ± 0.099 | 0.376 ± 0.061 |  |  |  |  |  |  |  | 
CC(C)C[C@H](NC(=O)[C@H](CC(C)C)NC(=O)[C@H](Cc1ccccc1)NC(=O)[C@@H](N)CO)C(=O)N[C@@H](CCCN=C(N)N)C(=O)N[C@@H](CC(N)=O)C(=O)O [Thrombin receptor activator peptide-6] (compound abbreviation / co-treatment: TRAP-6, exposure (dose, time): 50 µM, 30 min) | 0.588 ± 0.089 | 0.4 ± 0.058 | 0.967 ± 0.04 | 1.05 ± 0.036 |  |  |  |  |  |  |  | 
CC1(C)[C@@H](O)CC[C@]2(C)[C@H]3C(=O)C=C4[C@@H]5C[C@@](C)(C(=O)O)CC[C@]5(C)CC[C@@]4(C)[C@]3(C)CC[C@@H]12 [ß-Glycyrrhetinic acid] (compound abbreviation / co-treatment: BGA, exposure (dose, time): 30-50 µM, 15 min) |  |  |  |  | 0.242 ± 0.036 | 0.353 ± 0.03 | 0.302 ± 0.023 | 0.344 ± 0.053 | 0.225 ± 0.034 | 0.242 ± 0.042 | 0.243 ± 0.038 | 0.269 ± 0.028
